{
  "source": "ChEMBL document CHEMBL1135302",
  "about": "“Optimization of the 4-aryl group of 4-aryl-pyridine glucagon antagonists: development of an efficient, alternative synthesis” (Bioorg Med Chem Lett, 2002)",
  "data": [
    {"target": "T1, Glucagon receptor (Homo sapiens, UniProt P47871)", "T1 sequence (P47871 whole entry)": "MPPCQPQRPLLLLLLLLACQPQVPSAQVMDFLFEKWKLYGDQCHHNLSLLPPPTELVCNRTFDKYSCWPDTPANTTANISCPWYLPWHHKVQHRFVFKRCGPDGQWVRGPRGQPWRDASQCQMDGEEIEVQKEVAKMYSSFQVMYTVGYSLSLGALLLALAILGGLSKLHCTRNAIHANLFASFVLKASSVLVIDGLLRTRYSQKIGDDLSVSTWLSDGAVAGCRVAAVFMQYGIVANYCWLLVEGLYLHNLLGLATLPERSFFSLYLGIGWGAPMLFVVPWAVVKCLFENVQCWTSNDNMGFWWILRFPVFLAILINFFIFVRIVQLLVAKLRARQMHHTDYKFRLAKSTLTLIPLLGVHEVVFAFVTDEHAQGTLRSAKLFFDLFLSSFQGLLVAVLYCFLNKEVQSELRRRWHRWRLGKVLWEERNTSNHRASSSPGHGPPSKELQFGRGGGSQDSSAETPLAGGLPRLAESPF", "assay": "biochemical", "units": {"IC50": "µM"}, "description": "Tested for its inhibitory activity against human glucagon receptor (hGR) expressed in CHO cells", "values": [
      {"molecule": "CCCCCc1c(C(C)C)nc(C(C)C)c(CO)c1-c1ccc(F)cc1O", "IC50": 0.19},
      {"molecule": "CC(C)=Cc1c(C(C)C)nc(C(C)C)c(O)c1-c1ccc(F)cc1", "IC50": 7},
      {"molecule": "CCCCCc1c(C(C)C)nc(C(C)C)c(CO)c1-c1ccccc1N", "IC50": 2.3},
      {"molecule": "CCCCCc1c(C(C)C)nc(C(C)C)c(CO)c1-c1ccc(F)cc1F", "IC50": 11},
      {"molecule": "CCCCCc1c(C(C)C)nc(C(C)C)c(CO)c1-c1cccc(OC)c1", "IC50": 48},
      {"molecule": "CCCCCc1c(C(C)C)nc(C(C)C)c(CO)c1-c1ccc(F)c(CO)c1", "IC50": 19}
    ]},
    {"target": "T1, Glucagon receptor", "assay": "Percentage inhibition of human glucagon receptor function expressed in CHO cells at a concentration of 20 uM.", "format": "cell-based", "units": {"inhibition": "%"}, "values": [
      {"molecule": "CCCCCc1c(C(C)C)nc(C(C)C)c(CO)c1-c1ccc(Cl)cc1Cl", "inhibition": 8},
      {"molecule": "CCCCCc1c(C(C)C)nc(C(C)C)c(CO)c1-c1ccccc1OC", "inhibition": 27},
      {"molecule": "CCC/C=C/c1c(C(C)C)nc(C(C)C)c(CO)c1-c1ccc(S(C)(=O)=O)cc1", "inhibition": 14},
      {"molecule": "CCCCCc1c(C(C)C)nc(C(C)C)c(CO)c1-c1ccccc1CO", "inhibition": 44},
      {"molecule": "CCCCCc1c(C(C)C)nc(C(C)C)c(CO)c1-c1ccc(CC)cc1", "inhibition": 42},
      {"molecule": "CCCCCc1c(C(C)C)nc(C(C)C)c(C)c1-c1ccccc1O", "inhibition": 11},
      {"molecule": "CCCCCc1c(C(C)C)nc(C(C)C)c(CO)c1-c1ccc(C(C)C)cc1", "inhibition": 34},
      {"molecule": "CCCCCc1c(C(C)C)nc(C(C)C)c(CO)c1-c1cccc2ccccc12", "inhibition": 6},
      {"molecule": "CCCCCc1c(C(C)C)nc(C(C)C)c(CO)c1-c1ccc(C(F)(F)F)cc1", "inhibition": 35},
      {"molecule": "CCCCCc1c(C(C)C)nc(C(C)C)c(CO)c1-c1cccc(Cl)c1", "inhibition": 49},
      {"molecule": "CCCCCc1c(C(C)C)nc(C(C)C)c(CO)c1-c1cccc(C(F)(F)F)c1", "inhibition": 25},
      {"molecule": "CCCCCc1c(C(C)C)nc(C(C)C)c(CO)c1-c1ccccc1NC(C)=O", "inhibition": 13},
      {"molecule": "CCCCCc1c(C(C)C)nc(C(C)C)c(CO)c1-c1ccc(O)cc1", "inhibition": 24},
      {"molecule": "CCCCCc1c(C(C)C)nc(C(C)C)c(CO)c1-c1ccccc1C", "inhibition": 33},
      {"molecule": "CCC/C=C/c1c(C(C)C)nc(C(C)C)c(CO)c1-c1ccc(Cl)c(Cl)c1", "inhibition": 39},
      {"molecule": "CCCCCc1c(C(C)C)nc(C(C)C)c(CO)c1-c1cccc(C)c1", "inhibition": 46},
      {"molecule": "CCCCCc1c(C(C)C)nc(C(C)C)c(CO)c1-c1ccc2c(c1)CCCC2", "inhibition": 37},
      {"molecule": "CCCCCc1c(C(C)C)nc(C(C)C)c(CO)c1-c1ccc2ccccc2c1", "inhibition": 16},
      {"molecule": "CCCCCc1c(C(C)C)nc(C(C)C)c(CO)c1-c1ccc(-c2ccccc2)cc1", "inhibition": 2},
      {"molecule": "CCCCCc1c(C(C)C)nc(C(C)C)c(CO)c1-c1ccc(OC)cc1", "inhibition": 37}
    ]},
    {"target": "T1, Glucagon receptor", "assay": "Tested for its ability to inhibit cAMP production in human glucagon receptor expressed CHO cells", "format": "functional, cell-based", "units": {"IC50": "µM"}, "values": [
      {"molecule": "CCCCCc1c(C(C)C)nc(C(C)C)c(CO)c1-c1ccc(F)cc1O", "IC50": 0.12},
      {"molecule": "CCCCCc1c(C(C)C)nc(C(C)C)c(CO)c1-c1ccc(F)cc1", "IC50": 0.4}
    ]}
  ]
}
